The results in this text go back to PMC11076738, “A rapid and simple non-radioactive assay for measuring uptake by solute carrier transporters” (Frontiers in Pharmacology, 2024).

What all share (format): cell-based
One experiment concerns the target T1, NTCP (Homo sapiens, UniProt Q14973).
T1 construct: His-tag; expressed in transfected cells
T1 sequence (Q14973 1-349): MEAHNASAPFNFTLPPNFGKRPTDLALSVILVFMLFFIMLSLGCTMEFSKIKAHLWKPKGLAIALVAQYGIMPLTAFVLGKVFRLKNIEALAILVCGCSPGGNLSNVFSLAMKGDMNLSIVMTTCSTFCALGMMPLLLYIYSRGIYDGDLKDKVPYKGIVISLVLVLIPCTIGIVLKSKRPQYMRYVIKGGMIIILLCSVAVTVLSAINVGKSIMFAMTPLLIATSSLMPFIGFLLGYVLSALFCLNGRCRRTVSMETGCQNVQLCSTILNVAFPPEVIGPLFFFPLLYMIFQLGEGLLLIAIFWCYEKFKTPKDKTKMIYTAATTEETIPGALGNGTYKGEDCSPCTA
Nature of the experiment: TCA-d4 uptake assay (LC-MS/MS) in HepG2 NTCP cells.

The subject of a further experiment is BMP reporter gene. In words: BMP reporter gene assay (Id1-Luc) in HEK293T cells. The settings on record: HEK293T cells with Id1-Luc reporter; 3 μM, 12 h. How it is done: HEK293T cells transfected with Id1-Luc reporter construct were seeded into a 96-well plate (190 μL/well of 3,000 cells/mL)) and then treated with 3 μM JH7 for 12 h. FK506 and DMSO were used as positive and negative controls, respectively. Cells were removed 100 μL DMEM and added in 40 μL Bright-Glo™ Luciferase reagent (per well) and placed on a plate-shaker for 10 min. Bright-Glo™ Luciferase Assay was performed with Ensight plate reader.
(In general: Reporter assays use an easily measured gene product as a stand-in for the process of interest.)

The target of experiment [1] is T2, LAT1 (Homo sapiens, UniProt Q01650).
T2 construct: endogenous in cells; host or cells: LS174T (wild type)
In words: leucine-d3 uptake assay (LC-MS/MS) in LS174T cells. The settings on record: 5 μM leucine-d3, 15 min uptake, mean ± s.d., n = 3, read-out: IC50, inhibition of leucine-d3 uptake. How it is done:
LS174T cells were seeded into 12-well plates at a density of 1×10^6/well. After a 48 h incubation, cells were carefully washed with prewarmed Na^+-free uptake buffer (10 mM Tris-HCl, 150 mM KCl, 5 mM MgCl2, 1 mM EGTA, pH 7.4) twice and incubated in 0.5 mL of Na^+-free uptake buffer at 37 °C for 15 min. Cells were washed with Na^+-free uptake buffer once again and incubated with different concentrations of JPH203 or DMSO at 37 °C for 15 min. Cells were then allowed to take up 5 μM of leucine-d3 at 37 °C for another 15 min. After incubation, cells were washed with Na^+-free uptake buffer three times and lysed with 200 μL of acetonitrile. The cell lysate was transferred to a new tube and the supernatant was collected by centrifugation at 12,000 rpm for 10 min at 4°C. Leucine-d3 uptake was quantified with LC-MS/MS.
Prepared samples were separated on an Agilent 1290 II system (CA, United States) equipped with an XSelect HSS T3 C18 reverse phase column (2.1 × 150 mm, 3.5 μm). […]
Targeted analytes were monitored in a negative multiple-reaction monitoring (MRM) mode on an Agilent 6495C triple quadrupole […] system (CA, United States). […] Leucine-d3 and TCA-d4 were monitored in negative ion mode with MRM ion pairs at 135.1 > 89.2 (collision energy: 14 eV) and 518.0 > 124.0 (collision energy: 65 eV), respectively. […]

Experiment [2] addresses T2, LAT1. In words: 3H-leucine uptake assay in LS174T cells. The settings on record: read-out: IC50, inhibition of 3H-leucine uptake, radioactive method, mean ± s.d., n = 3. The protocol:
The inhibitory activity of JPH203 on LAT1 was analyzed by measuring the cell uptake of ^3H-leucine as previously described with minor modifications ([Oda et al., 2010]). Similar to leucine-d3 uptake assay, LS174T cells were washed twice and incubated in Na^+-free uptake medium (10 mM Tris-HCl, 150 mM KCl, 5 mM MgCl2, 1 mM EGTA, pH 7.4) for 15 min. Cells were added with JPH203 or DMSO and incubated for another 15 min before adding ^3H-leucine. After 15 min incubation, cells were washed three times and lysed with 0.2 N NaOH plus 0.2% SDS. The cell lysate was transferred to a new tube containing 1 mL of optiphase supermix. ^3H-leucine uptake was quantified with a scintillation counter.

T2 sequence (Q01650 whole entry): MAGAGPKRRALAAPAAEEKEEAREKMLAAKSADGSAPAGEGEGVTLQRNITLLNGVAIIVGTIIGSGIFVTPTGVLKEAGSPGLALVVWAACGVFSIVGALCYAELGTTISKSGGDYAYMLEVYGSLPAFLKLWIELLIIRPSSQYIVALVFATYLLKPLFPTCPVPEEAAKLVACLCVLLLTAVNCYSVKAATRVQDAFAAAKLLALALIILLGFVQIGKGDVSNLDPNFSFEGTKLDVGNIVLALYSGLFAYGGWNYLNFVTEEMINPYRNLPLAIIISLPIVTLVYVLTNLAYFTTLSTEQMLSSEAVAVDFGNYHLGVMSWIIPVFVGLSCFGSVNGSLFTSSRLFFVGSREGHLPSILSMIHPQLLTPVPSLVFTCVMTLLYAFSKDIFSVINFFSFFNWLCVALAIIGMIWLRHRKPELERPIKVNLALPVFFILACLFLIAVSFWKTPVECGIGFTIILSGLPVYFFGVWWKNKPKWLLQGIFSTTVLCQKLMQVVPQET
T2 sequence (P08195 102-630 partner): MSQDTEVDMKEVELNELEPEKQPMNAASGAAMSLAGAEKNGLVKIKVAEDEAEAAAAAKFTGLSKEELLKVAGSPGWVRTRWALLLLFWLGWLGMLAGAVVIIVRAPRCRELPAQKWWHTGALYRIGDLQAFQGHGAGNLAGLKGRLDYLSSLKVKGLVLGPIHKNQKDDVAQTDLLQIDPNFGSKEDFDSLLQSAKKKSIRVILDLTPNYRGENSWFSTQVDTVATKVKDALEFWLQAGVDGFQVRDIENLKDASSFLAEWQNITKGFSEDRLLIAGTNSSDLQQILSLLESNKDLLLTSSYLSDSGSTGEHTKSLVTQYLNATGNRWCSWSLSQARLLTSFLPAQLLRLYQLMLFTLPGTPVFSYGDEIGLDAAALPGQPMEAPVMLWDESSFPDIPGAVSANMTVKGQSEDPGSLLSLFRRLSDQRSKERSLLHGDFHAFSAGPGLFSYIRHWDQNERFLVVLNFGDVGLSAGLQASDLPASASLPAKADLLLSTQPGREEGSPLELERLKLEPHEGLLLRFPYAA
Protocol for NTCP: HepG2 NTCP cells were seeded into 12-well plates at a density of 2×10^5/well. After a 48 h incubation, cells were carefully washed with uptake buffer (10 mM HEPES, 100 mM NaCl, 2 mM KCl, 1 mM MgCl2, 1 mM CaCl2, pH 7.4) twice and incubated in 0.5 mL of uptake buffer for 15 min at 37 °C. […] Cells were then allowed to take up 5 μM of TCA-d4 at 37 °C for another 15 min. After incubation, cells were washed with uptake buffer three times and lysed with 200 μL of ethanol. The cell lysate was transferred to a new tube and the supernatant was collected by centrifugation at 12,000 rpm for 10 min at 4°C. TCA-d4 uptake was quantified with LC-MS/MS.
Prepared samples were separated on an Agilent 1290 II system (CA, United States) equipped with an XSelect HSS T3 C18 reverse phase column (2.1 × 150 mm, 3.5 μm). […] To separate TCA-d4, the mobile phase consisted of solution A (5 mM ammonium formate) and solution B (methanol). […]
Targeted analytes were monitored in a negative multiple-reaction monitoring (MRM) mode on an Agilent 6495C triple quadrupole LS/MS system (CA, United States). […] Leucine-d3 and TCA-d4 were monitored in negative ion mode with MRM ion pairs at 135.1 > 89.2 (collision energy: 14 eV) and 518.0 > 124.0 (collision energy: 65 eV), respectively. […]

Regarding `CCCC[C@H]1C(=O)N[C@@H](Cc2ccc(F)cc2)C(=O)N(C)CC/C=C/C(=O)OCC(C)(C)C(=O)C(=O)N2CCCC[C@H]2C(=O)O[C@H](CCc2ccc(OC)c(OC)c2)c2cccc(c2)OCC(=O)N(C)CC(=O)N[C@@H](Cc2cccs2)C(=O)N1C` [JH7], the IC50 at NTCP (5 μM TCA-d4, 15 min uptake, mean ± s.d., n = 3, read-out: IC50, inhibition of TCA-d4 uptake) was 49.3 ± 0.8 nM. Moreover, the “TCA-d4 uptake (% of control)” value on NTCP (rapafucins at a final concentration of 2 μM) was 19.35 % of control. Also, in the experiment with BMP reporter gene, the “activation of BMP reporter gene” value is “did not activate”.
With `Nc1cc(COc2c(Cl)cc(C[C@H](N)C(=O)O)cc2Cl)c2oc(-c3ccccc3)nc2c1` [JPH203], the IC50 on LAT1 [1] is 1110 ± 210 nM; on LAT1 [2], 960 ± 90 nM.

A word on the IC50: it is the concentration at which inhibition is half-maximal.
